Structures can show the parent of a compound that is named as a salt.
Assays:
KPC cells [1] = assay: CRT expression (flow cytometry), HMGB1 release (ELISA) and ATP release; type: cell-based, mouse
Description: 7.5×10^4 KPC cells were seeded into 24-well plates. After cell attachment, KPC cells were treated with IRIN (300 µM), OX (500 µM), DOX (20 µM or PTX (12 µM for 24 h. The cell culture media were collected in 1.5 mL tube and spun down (2,000 rpm for 5 min) to collect the supernatants for HMGB1 detection by an ELISA kit (Catalog# ST51011, IBL International GmbH). Surface CRT expression was measured by flow cytometry in the same experiment, as previously described. ^[27] Briefly, the loosely attached cells were combined with trypsin-treated adhered cells. The cells were washed in cold PBS and then stained with a primary anti-CRT antibody (Abcam, ab2907, 1: 140) in 200 µL BD staining buffer for 0.5 h on ice. The cells were washed in cold PBS and stained with an Alexa Fluor® 680-conjugated secondary antibody (LifeScience Technologies #A21244) for 30 min on ice. After washing in cold PBS, the cells were assessed in a LSRII flow cytometer (BD Biosciences).

orthotopic KPC tumor = assay: Survival experiment, IRIN silicasome plus anti-PD-1 in orthotopic KPC tumor model; type: in vivo, mouse
Description: Panel A) Explanation of the KPC model, including orthotopic implant in the pancreas and technical development of the primary tumor and metastases that can be followed by IVIS imaging. Animals were sacrificed according to the moribund criteria shown. Panel B). Details of the survival experiment in tumor-bearing mice (n = 5-7), which were treated with free IRIN or the silicasome at an IRIN dose equivalent of 40 mg/kg IV every 3- or 4-days, with or without IP administration of 100 µg anti-PD-1 antibody, for a total of six administrations. Please notice that the antibody was administered two days after IRIN injection. Saline and anti-PD-1 antibody alone were used as controls. Kaplan-Meier plots were used to display the survival rate of the different animal groups (*p<0.05, Log Rank test).
The KPC-derived orthotopic tumor model in immunocompetent B6129SF1/J mouse was established as described in FIG. 4, panel A. ^[16] Briefly, 30 µL of DMEM/Matrigel (1:1 v/v), containing ~1×10^6 KPC-luc cells, was injected into the tail of the pancreas in female B6129SF1/J mice (8~10 weeks) by a short survival surgery procedure.^[16] In the first survival experiment (FIG. 4, panel B), tumor-bearing mice were randomly assigned into 6 groups (n = 5-7) and received IV injection of the IRIN formulations at API dose of 40 mg/kg. Anti-PD-1 antibody was injected at 100 µg/animal IP. To assess survival rate, animals were monitored daily up to the stage of spontaneous death or approaching moribund status (defined in FIG. 4, panel A)^[16, 36]. The survival data were plotted as Kaplan-Meier curves, followed by data analysis to derive mean survival time. Statistical analysis and p values were obtained by Log Rank testing (Mantel-Cox), using GraphPad Prism 7.00 software.

KPC cells [2] = assay: Autophagy (LC3B, p62) and PD-L1 expression by IF staining and immunoblotting; type: cell-based, mouse
Description: KPC cells were seeded in the µ-Slide 8 well. After cell attachment, the cells were treated by IRIN at 300 µM for 24 h. Control treatments included exposure to PBS, chloroquine (32 µM), rapamycin (100 nM) and IFN-γ (10 ng/ml). Before IF staining, the cells were washed with PBS and fixed with 4% paraformaldehyde at RT for 15 minutes. Cells were treated in 1% BSA (blocking reagent) plus 0.2% triton-X100 in PBS for 30 minutes. Subsequently, the cells were incubated with primary antibody that recognizes LC3B (Cell Signaling #2775, 1:200) or p62/SQSTM1 (Cell Signaling #23214, 1:800) in 1% BSA containing PBS solution at 4° C. overnight. The sample was washed twice in PBS and further stained using an Alexa Fluor® 488 conjugated goat anti-rabbit secondary antibody (Thermo Fisher, A-11008, 1:1000) and 5 µg/mL Hoechst 33342 dye for 1 h. Cell surface staining for PD-L1 assessment was carried out in fixed (4% paraformaldehyde) cells, using a staining process similar to the above protocol. Primary PD-L1 antibody (Abcam, ab213480, 1: 500) and Alexa Fluor® 594 conjugated goat anti-rabbit secondary antibody (Thermo Fisher, A-11012, 1:1000) were used. The cells were visualized using a Leica SP8-MD confocal microscope under the 100x objective lens.
To confirm the confocal staining results for LC3B, p62 and PD-L1, western blotting experiments were performed in KPC cells exposed to IRIN (300 µM) or OX (500 µM) for 24 hr. Another experiment also looked at the dose-dependent effect of IRIN at concentrations of 75, 150, 300 and 600 µM for 24 h. Briefly, ~2×10^5 KPC cells per well were seeded in 6 well-plates. After drug exposure, KPC cells were harvested and treated with cold RIPA lysis buffer (Cell Signaling # 9806S), supplemented with a cocktail of protease and phosphatase inhibitors (Cell Signaling #5872) and incubated on ice for 30 mins. After centrifugation of the lysates at 12,000 rpm for 10 min, protein concentration was quantified by a Bradford assay (Biorad). Equal amounts of protein in the supernatants were loaded onto a 10-20% Tris-glycine SDS-PAGE gel (Invitrogen, Grand Island, NY). The proteins were subsequently transferred to a PVDF membrane. The membrane was blocked with 5% non-fat dry milk/TBST, before incubation with primary and HRP-conjugated secondary antibodies. The primary antibodies included: LC3B (Cell Signaling #2775), p62/SQSTM1 (Cell Signaling #5114), NF-κB p65 (Cell Signaling #8242), Phospho-NF-xB p65 (Cell Signaling #3033) and PD-L1 (Abcam, ab213480). The blots were developed by soaking in ECL substrate (Thermo Fisher Scientific). Densitometric analysis of each protein band on the film was quantified by ImageJ software and normalized to the intensity of a corresponding housekeeping protein.
The of the IRIN silicasome on lysosomal alkalization was performed at drug concentrations of 75 µM and 300 µM in KPC cells. Empty silicasomes (in which a 500 µg/mL particle dose is representative of an encapsulated IRIN dose of 300 µM) was included as control. The assessment of LC3B, p62 and PD-L1 immunoblotting and IF staining were performed in KPC cells during treatment with the IRIN silicasome or empty silicasomes, as described for the free drug.

## CCc1c2c(nc3ccc(OC(=O)N4CCC(N5CCCCC5)CC4)cc13)-c1cc3c(c(=O)n1C2)COC(=O)[C@]3(O)CC [IRIN, Irinotecan hydrochloride trihydrate]
KPC cells [1]
  ATP release: could not demonstrate an increase in ATP release
KPC cells [1]; IRIN 300 µM, 24 h
  CRT expression and HMGB1 release: strong inducer of both responses
Orthotopic KPC tumor; IRIN 40 mg/kg IV, anti-PD-1 100 µg IP, six administrations, saline 19
  MST (median survival time): 19 days
Orthotopic KPC tumor; IRIN 40 mg/kg IV, anti-PD-1 100 µg/mouse IP
  survival (Kaplan-Meier, Log Rank test): no survival benefits
Orthotopic KPC tumor; vs. saline
  % ILS (% increase in life span, [(T - C)/C] × 100): 0.0%
KPC cells [2]; 24 h, IRIN 300 µM, CQ 32 µM, RAP 100 nM
  IF staining of LC3B and p62/SQSTM1 complexes: contemporaneous appearance of fluorescent LC3B puncta as well as p62 protein complexes
KPC cells [2]; IRIN 300 µM or OX 500 µM, 24 h
  PD-L1 expression: robust cell surface expression of PD-L1
  autophagy flux (Western blotting of LC3 and p62): inhibited autophagy flux
KPC cells [2]; IRIN 300 µM, 24 hrs
  phosphorylation of p65 NF-κB subunit: induce the phosphorylation of the p65 (p-p65) subunit of NF-κB
KPC cells [2]; IRIN 75-600 µM, 24 h
  ratio of LC3-II vs. LC3-I expression (immunoblotting): dose-dependent increase

From US20230338363A1, “COMBINATION CHEMO-IMMUNOTHERAPY FOR PANCREATIC CANCER USING THE IMMUNOGENIC EFFECTS OF AN IRINOTECAN SILICASOME NANOCARRIER PLUS ANTI-PD-1” (The Regents of the University of California, priority 2020, published 2023)
